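In this assay, cells in 96-well plates receive the compound at five concentrations for 48 hours. Endpoints are linearly interpolated between the surrounding concentrations. At the GI50, growth is halved. Definition used: TGI = concentration required for complete inhibition of growth.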
Key:
Assay in all cases: NCI anticancer screen, dose series, 48 h
[1] = tested on: UO-31 renal
[2] = tested on: CCRF-CEM leukemia
[3] = tested on: SF-539 CNS
[4] = tested on: SK-MEL-5 melanoma
[5] = tested on: SNB-75 CNS
[6] = tested on: OVCAR-4 ovarian
[7] = tested on: T-47D breast
[8] = tested on: OVCAR-5 ovarian
[9] = tested on: PC-3 prostate
[10] = tested on: HOP-92 NSCLC
[11] = tested on: UACC-62 melanoma
[12] = tested on: SW-620 colon
[13] = tested on: UACC-257 melanoma
[14] = tested on: MCF7 breast
[15] = tested on: HOP-62 NSCLC
[16] = tested on: HS 578T breast
[17] = tested on: MDA-MB-435
[18] = tested on: A498 renal
[19] = tested on: SNB-19 CNS
[20] = tested on: DU-145 prostate
[21] = tested on: SF-268 CNS
[22] = tested on: KM12 colon
[23] = tested on: HL-60(TB) leukemia
[24] = tested on: NCI-H460 lung
[25] = tested on: MALME-3M melanoma
[26] = tested on: M14 melanoma
[27] = tested on: A549 NSCLC
[28] = tested on: SN12C renal
[29] = tested on: LOX IMVI melanoma
[30] = tested on: ACHN renal
[31] = tested on: HCC-2998 colon
[32] = tested on: MDA-MB-231 breast
[33] = tested on: SF-295 CNS
[34] = tested on: NCI-H226 lung
[35] = tested on: NCI-H23 lung
[36] = tested on: 786-0 renal
[37] = tested on: NCI/ADR-RES ovarian
[38] = tested on: SK-OV-3 ovarian
[39] = tested on: RPMI-8226 leukemia
[40] = tested on: SR leukemia
[41] = tested on: HCT-116 colon
[42] = tested on: COLO 205 colon
[43] = tested on: RXF 393 renal
[44] = tested on: HCT-15 colon
[45] = tested on: BT-549 breast
[46] = tested on: NCI-H522 lung
[47] = tested on: SK-MEL-2 melanoma
[48] = tested on: SK-MEL-28 melanoma
[49] = tested on: U251 CNS
[50] = tested on: MOLT-4 leukemia
[51] = tested on: CAKI-1 renal
[52] = tested on: HT29 colon
[53] = tested on: K-562 leukemia
[54] = tested on: TK-10 renal
[55] = tested on: IGROV1 ovarian
[56] = tested on: EKVX NSCLC
[57] = tested on: OVCAR-8 ovarian

`COc1ccc2c(c1)c(CC(=O)[Se]CCC#N)c(C)n2C(=O)c1ccc(Cl)cc1` was tested, and the GI50 [1] was 1.73 µM, the TGI [1] was 4.2 µM and the GI50 [2] was 2.43 µM. The TGI [2] was > 100 µM, the GI50 [3] was 2.02 µM and the TGI [3] was 4.36 µM. It also gave a GI50 [4] of 2.05 µM, a TGI [4] of 4.18 µM and a GI50 [5] of 1.5 µM. It also gave a TGI [5] of 3.72 µM, a GI50 [6] of 2.38 µM and a TGI [6] of 6.94 µM. For the same compound, the GI50 [7] was 9.78 µM, the TGI [7] was 38.8 µM and the GI50 [8] was 2.8 µM. For the same compound, the TGI [8] was 8.87 µM, the GI50 [9] was 2.54 µM and the TGI [9] was 7.35 µM. It also gave a GI50 [10] of 1.5 µM, a TGI [10] of 3.11 µM and a GI50 [11] of 1.94 µM. It also gave a TGI [11] of 4.7 µM, a GI50 [12] of 3.41 µM and a TGI [12] of 10.4 µM. It also gave a GI50 [13] of 1.6 µM, a TGI [13] of 3.46 µM and a GI50 [14] of 2.56 µM. It also gave a TGI [14] of 9.7 µM, a GI50 [15] of 1.77 µM and a TGI [15] of 3.46 µM. For the same compound, the GI50 [16] was 2.35 µM, the TGI [16] was 8.79 µM and the GI50 [17] was 1.75 µM. The TGI [17] was 3.47 µM, the GI50 [18] was 1.6 µM and the TGI [18] was 3.08 µM. It also gave a GI50 [19] of 1.89 µM, a TGI [19] of 3.58 µM and a GI50 [20] of 2.26 µM. It also gave a TGI [20] of 5.93 µM, a GI50 [21] of 2.31 µM and a TGI [21] of 5.07 µM. It also gave a GI50 [22] of 4.13 µM, a TGI [22] of 31 µM and a GI50 [23] of 1.2 µM. It also gave a TGI [23] of 6.25 µM, a GI50 [24] of 2.37 µM and a TGI [24] of 8.38 µM. For the same compound, the GI50 [25] was 1.7 µM, the TGI [25] was 4.36 µM and the GI50 [26] was 1.39 µM. For the same compound, the TGI [26] was 3.04 µM, the GI50 [27] was 1.87 µM and the TGI [27] was 3.86 µM. It also gave a GI50 [28] of 2.49 µM, a TGI [28] of 6.67 µM and a GI50 [29] of 1.54 µM. The TGI [29] was 3.96 µM, the GI50 [30] was 2.93 µM and the TGI [30] was 7.79 µM. The GI50 [31] was 3.61 µM, the TGI [31] was 12.8 µM and the GI50 [32] was 2.04 µM. The TGI [32] was 4.97 µM, the GI50 [33] was 1.8 µM and the TGI [33] was 3.3 µM. For the same compound, the GI50 [34] was 1.55 µM, the TGI [34] was 4.01 µM and the GI50 [35] was 2.28 µM. The TGI [35] was 5.86 µM, the GI50 [36] was 1.92 µM and the TGI [36] was 3.47 µM. It also gave a GI50 [37] of 2.18 µM, a TGI [37] of 6.31 µM and a GI50 [38] of 3.62 µM. The TGI [38] was 6.33 µM, the GI50 [39] was 2.51 µM and the TGI [39] was 6.99 µM. For the same compound, the GI50 [40] was 3.78 µM, the TGI [40] was > 100 µM and the GI50 [41] was 1.74 µM. For the same compound, the TGI [41] was 3.34 µM, the GI50 [42] was 2.26 µM and the TGI [42] was 4.67 µM. For the same compound, the GI50 [43] was 1.52 µM, the TGI [43] was 3.17 µM and the GI50 [44] was 2.17 µM. It also gave a TGI [44] of 5.27 µM, a GI50 [45] of 1.71 µM and a TGI [45] of 3.35 µM. The GI50 [46] was 1.84 µM, the TGI [46] was 3.54 µM and the GI50 [47] was 2.39 µM. It also gave a TGI [47] of 5.43 µM, a GI50 [48] of 2.19 µM and a TGI [48] of 5.66 µM. It also gave a GI50 [49] of 1.66 µM, a TGI [49] of 3.11 µM and a GI50 [50] of 2.9 µM. For the same compound, the TGI [50] was > 100 µM, the GI50 [51] was 1.93 µM and the TGI [51] was 3.5 µM. For the same compound, the GI50 [52] was 2.45 µM, the TGI [52] was 7.39 µM and the GI50 [53] was 3.24 µM. For the same compound, the TGI [53] was > 100 µM.

`O=C1C(N2CCN(c3ccccc3)CC2)=C(Cl)C(=O)c2ncccc21` gave a GI50 [1] of 1.91 µM, a TGI [1] of 4.3 µM and a GI50 [2] of 2.33 µM. The TGI [2] was 6.65 µM, the GI50 [3] was 6.96 µM and the TGI [3] was 20 µM. The GI50 [4] was 13.1 µM, the TGI [4] was 25.7 µM and the GI50 [54] was 12.4 µM. The TGI [54] was 25.5 µM, the GI50 [5] was 17.5 µM and the TGI [5] was 38 µM. It also gave a GI50 [6] of 1.79 µM, a TGI [6] of 3.44 µM and a GI50 [7] of 1.76 µM. The TGI [7] was 3.95 µM, the GI50 [8] was 16.6 µM and the TGI [8] was 32 µM. For the same compound, the GI50 [9] was 9.22 µM, the TGI [9] was 23.1 µM and the GI50 [10] was 1.49 µM. It also gave a TGI [10] of 2.93 µM, a GI50 [11] of 3.43 µM and a TGI [11] of 12.4 µM. For the same compound, the GI50 [12] was 1.67 µM, the TGI [12] was 3.89 µM and the GI50 [13] was 2.21 µM. For the same compound, the TGI [13] was 6.22 µM, the GI50 [14] was 1.65 µM and the TGI [14] was 3.6 µM. For the same compound, the GI50 [15] was 17.3 µM, the TGI [15] was 31.4 µM and the GI50 [16] was 13.6 µM. For the same compound, the TGI [16] was 47.4 µM, the GI50 [17] was 1.77 µM and the TGI [17] was 3.29 µM. For the same compound, the GI50 [18] was 13.5 µM, the TGI [18] was 34 µM and the GI50 [19] was 16.1 µM. For the same compound, the TGI [19] was 30.6 µM, the GI50 [20] was 11.3 µM and the TGI [20] was 23.6 µM. It also gave a GI50 [21] of 15.2 µM, a TGI [21] of 29.6 µM and a GI50 [22] of 20.7 µM. For the same compound, the TGI [22] was 43.6 µM, the GI50 [23] was 1.36 µM and the TGI [23] was 3.94 µM. For the same compound, the GI50 [24] was 6.73 µM, the TGI [24] was 22.4 µM and the GI50 [25] was 1.95 µM. The TGI [25] was 4.25 µM, the GI50 [55] was 3.48 µM and the TGI [55] was 12.3 µM. It also gave a GI50 [26] of 3.92 µM, a TGI [26] of 14.7 µM and a GI50 [27] of 16.5 µM. For the same compound, the TGI [27] was 32.6 µM, the GI50 [28] was 4.97 µM and the TGI [28] was 17.8 µM. The GI50 [29] was 1.59 µM, the TGI [29] was 3.07 µM and the GI50 [30] was 2.21 µM. For the same compound, the TGI [30] was 5.8 µM, the GI50 [31] was 12 µM and the TGI [31] was 24.9 µM. The GI50 [32] was 1.68 µM, the TGI [32] was 3.21 µM and the GI50 [33] was 14.2 µM. For the same compound, the TGI [33] was 27.3 µM, the GI50 [34] was 14.3 µM and the TGI [34] was 31.9 µM. For the same compound, the GI50 [36] was 6.43 µM, the TGI [36] was 18.8 µM and the GI50 [37] was 4.33 µM. The TGI [37] was 20.7 µM, the GI50 [38] was 13.8 µM and the TGI [38] was 29.9 µM. The GI50 [56] was 1.73 µM, the TGI [56] was 3.38 µM and the GI50 [39] was 2.1 µM. It also gave a TGI [39] of 5.37 µM, a GI50 [57] of 4.72 µM and a TGI [57] of 17.6 µM. For the same compound, the GI50 [40] was 1.89 µM, the TGI [40] was 6.42 µM and the GI50 [41] was 1.73 µM. It also gave a TGI [41] of 3.11 µM, a GI50 [42] of 4.53 µM and a TGI [42] of 17.1 µM. The GI50 [43] was 1.87 µM, the TGI [43] was 3.43 µM and the GI50 [44] was 2.08 µM. It also gave a TGI [44] of 6.22 µM, a GI50 [45] of 10.2 µM and a TGI [45] of 21.8 µM. It also gave a GI50 [46] of 1.73 µM, a TGI [46] of 3.55 µM and a GI50 [47] of 11.2 µM. It also gave a TGI [47] of 23.6 µM, a GI50 [48] of 3.31 µM and a TGI [48] of 10.3 µM. For the same compound, the GI50 [49] was 10.3 µM, the TGI [49] was 22.7 µM and the GI50 [50] was 1.97 µM. It also gave a TGI [50] of 5.38 µM, a GI50 [51] of 5.5 µM and a TGI [51] of 18.2 µM. The GI50 [52] was 12 µM, the TGI [52] was 27.3 µM and the GI50 [53] was 2.04 µM. The TGI [53] was 5.51 µM.

Reference: PubChem BioAssay (NCI)
